“Also recorded” adds a separate entry of the source.
How the values were obtained:
[1] = Tolerability of BMLOV in mice; assay type: in vivo
Jurkat = assay: Apoptosis: DNA fragmentation on agarose gel; assay type: cell-based, human
Protocol: (§1) For these experiments, cell samples (2×10^6 cells) were centrifuged at 200× g, the media removed by aspiration and the cell pellets stored at -70° C. until processing. Cell pellets were resuspended in 300 μl digestion buffer (100 mM NaCl, 10 mM Tris-HCl, pH 8.0, 25 mM EDTA, 0.5% SDS, 0.1 mg/ml protease K) and incubated for 12 hours at 50° C. DNase-free ribonuclease (5 μg) in 200 μl TE buffer (10 mM Tris-HCl, pH 7.5, 1 mM EDTA) was added to each sample followed by incubation for 2 hours at 37° C. DNA was then extracted once with phenol:chloroform, once with chloroform and then precipitated with 0.5 volumes of ammonium acetate and 2 volumes of ethanol at -70° C. for 12 hours. The precipitated DNA was resuspended in 200 μl TE buffer and quantitated by absorbance at 260 nanometers. The DNA (15 μg) was applied to a 1.3% agarose gel in TBE buffer (89 mM Tris base, 89 mM boric acid, 2 mM EDTA) resolved at 20 mA constant current and the DNA was visualized by staining with ethidium bromide. Fragmented DNA due to apoptosis appeared as a ladder of bands on the gel.

CEM = assay: Apoptosis: DNA fragmentation on agarose gel; assay type: cell-based, human
Protocol: as §1

[2] = tested on: Ramos B cell lymphoma cells; assay: Apoptosis: DNA fragmentation on agarose gel; assay type: cell-based, human; conditions: 10 μM, by 48 hours
Protocol: as §1

HL60 = assay: Apoptosis: DNA fragmentation on agarose gel; assay type: cell-based, human; conditions: dose dependent
Protocol: as §1

Ramos B cells [3] = assay type: cell-based, human
From the text: These effects were synergistic rather than additive in that an approximately 5-fold enhancement in sensitization for the combination treatment was observed relative to expected additive effects based on the use of either treatment alone.

[4] = tested on: normal peripheral B cells; assay: Normal peripheral B cell [3H]-thymidine incorporation; assay type: cell-based, human
Protocol: In the experiment reported in Table 4, monoclonal antibodies to CD20 and CD40 were used to stimulate proliferation. Peripheral B cells were isolated from two healthy human volunteers. The cells were stimulated as listed in Table 4 and the effects of various doses of BMLOV on proliferation, as measured by [^3 H]-thymidine incorporation, were determined. BMLOV was able to inhibit proliferation induced by CD20, CD40, IL-4 and PMA in the various combinations tested. The cells from donor 2 were more sensitive, indicating some variation among individuals in their sensitivity to the drug.
Stimulation of CD20 was via monoclonal antibody 1F5 and stimulation of CD40 was via monoclonal antibody G28-5.
For assays of cellular proliferation, cells were grown five days in the presence of the indicated concentrations of BMLOV, pulsed 6 hr with [^3 H]-thymidine (New England Nuclear, Boston, Mass.), and counted in a liquid scintillation counter. Human peripheral blood lymphocytes (PBL) from normal volunteers were isolated from lymphocyte separation medium (Litton Bionetics, Kensington, Md.) by density gradient centrifugation. Monocytes were depleted from PBL by two rounds of plastic absorption for 30 minutes at 37° C. B cells were enriched for by negative selection using complement plus monoclonal antibodies to CD2, CD3, CD4, and CD8 for complement depletion. Clonogenic assays of colony formation in methylcellulose medium were performed as previously described (F. M. Uckun et al. (1992), supra).

Ramos B cells [5] = assay: TUNEL analysis of fragmented DNA by flow cytometry; assay type: cell-based, human; conditions: 25 or 50 μM BMLOV, 48 h
Protocol: (§2) TUNEL (TdT-mediated dUTP-biotin nick end labeling) staining for the in situ detection of fragmented DNA was as previously described (Y. Gavrieli et al., J. Cell Biol. 119:493-501 (1992)) with modification to permit detection by flow cytometry. Cells (2×106) were washed with PBS and resuspended in 4% formaldehyde in PBS at 4° C. for 4 h for fixation. Cells were rinsed in PBS and permeabilized by resuspension in 70% ethanol in PBS for 1 h at 4° C. Cells were rinsed with PBS, rinsed with TdT buffer (30 mM Tris-HCl, pH 7.2, 140 mM cacodylate, 1 mM cobalt chloride) and resuspended in 150 μl TdT buffer. Biotin-dUTP (SIGMA, St. Louis, Mo.) was added to 15 μM and terminal deoxynucleotidyl transferase (TdT, Boehringer Mannheim) was added to 0.6 U/μl. DNA synthesis was for 1 h at 37° C. and was stopped by the addition of 1 ml cold PBS. Cells were rinsed twice with PBS and resuspended in 500 μl of PBS containing 5 μg of fluorescein-avidin at 4° C. for 16 h. Cells were washed twice in PBS and resuspended in 400 μl of PBS for flow cytometry. Cells were analyzed using a Becton-Dickinson FACScan flow cytometer and LYSIS analysis software.
(§3) The extent of DNA fragmentation and the cell type selective activity was quantitated by TUNEL analysis (Y. Gavrieli et al., (1992), supra); FIG. 28). […]

Jurkat T cells = assay: TUNEL analysis of fragmented DNA by flow cytometry; assay type: cell-based, human; conditions: 25 or 50 μM BMLOV, 48 h
Protocol: as §2, §3

SMILES: Cc1occc(=O)c1[O-].Cc1occc(=O)c1[O-].[O]=[V+2] [BMLOV, Bis(maltolato)oxovanadium (IV)]
- tolerability ([1]; 1.6 mM BMLOV in drinking water continuously for 10 days): no overt ill effects
- tolerability ([1]; intraperitoneal doses up to 1 mg and oral doses up to 1.6 mg): without ill effects except for some temporary lethargy
- induction of apoptosis (DNA fragmentation) (Jurkat): apoptosis was not observed; also recorded: DNA fragmentation was not observed
- induction of apoptosis (DNA fragmentation) (CEM): apoptosis was not observed; also recorded: DNA fragmentation was not observed
- induction of apoptosis (DNA fragmentation) [2]: induced apoptosis; also recorded: induced extensive DNA fragmentation
- induction of apoptosis (DNA fragmentation) (HL60): Apoptosis was also observed to be induced; also recorded: DNA fragmentation was also induced
- enhancement in sensitization relative to expected additive effects (Ramos B cells [3]; combination of BMLOV and radiation): approximately 5 fold
- increase in cell death relative to radiation alone (Ramos B cells [3]; ramos b cells, 1 µM): 10 fold
- increase in clonogenic cell death relative to radiation alone (Ramos B cells [3]; ramos b cells, 2 µM): 50 fold
- [3H]cpm incorporation ([4]; Donor #1, CD20 + CD40, 1 μM BMLOV): 3619 cpm
- [3H]cpm incorporation ([4]; Donor #1, CD20 + CD40, 5 μM BMLOV): 3644 cpm
- [3H]cpm incorporation ([4]; Donor #1, CD20 + CD40, 10 μM BMLOV): 3422 cpm
- [3H]cpm incorporation ([4]; Donor #1, CD20 + CD40, 25 μM BMLOV): 2432 cpm
- [3H]cpm incorporation ([4]; Donor #1, CD40 + IL4, 1 μM BMLOV): 31966 cpm
- [3H]cpm incorporation ([4]; Donor #1, CD40 + IL4, 5 μM BMLOV): 33845 cpm
- [3H]cpm incorporation ([4]; Donor #1, CD40 + IL4, 10 μM BMLOV): 31637 cpm
- [3H]cpm incorporation ([4]; Donor #1, CD40 + IL4, 25 μM BMLOV): 24933 cpm
- [3H]cpm incorporation ([4]; Donor #1, PMA + CD40, 1 μM BMLOV): 62643 cpm
- [3H]cpm incorporation ([4]; Donor #1, PMA + CD40, 5 μM BMLOV): 58418 cpm
- [3H]cpm incorporation ([4]; Donor #1, PMA + CD40, 10 μM BMLOV): 45330 cpm
- [3H]cpm incorporation ([4]; Donor #1, PMA + CD40, 25 μM BMLOV): 25536 cpm
- [3H]cpm incorporation ([4]; Donor #1, PMA + IL4, 1 μM BMLOV): 61415 cpm
- [3H]cpm incorporation ([4]; Donor #1, PMA + IL4, 5 μM BMLOV): 48724 cpm
- [3H]cpm incorporation ([4]; Donor #1, PMA + IL4, 10 μM BMLOV): 45278 cpm
- [3H]cpm incorporation ([4]; Donor #1, PMA + IL4, 25 μM BMLOV): 14277 cpm
- [3H]cpm incorporation ([4]; Donor #2, CD20 + CD40, 1 μM BMLOV): 4593 cpm
- [3H]cpm incorporation ([4]; Donor #2, CD20 + CD40, 5 μM BMLOV): 5681 cpm
- [3H]cpm incorporation ([4]; Donor #2, CD20 + CD40, 10 μM BMLOV): 5269 cpm
- [3H]cpm incorporation ([4]; Donor #2, CD20 + CD40, 25 μM BMLOV): 856 cpm
- [3H]cpm incorporation ([4]; Donor #2, CD40 + IL4, 1 μM BMLOV): 16597 cpm
- [3H]cpm incorporation ([4]; Donor #2, CD40 + IL4, 5 μM BMLOV): 18824 cpm
- [3H]cpm incorporation ([4]; Donor #2, CD40 + IL4, 10 μM BMLOV): 12662 cpm
- [3H]cpm incorporation ([4]; Donor #2, CD40 + IL4, 25 μM BMLOV): 6013 cpm
- [3H]cpm incorporation ([4]; Donor #2, PMA + CD40, 1 μM BMLOV): 49102 cpm
- [3H]cpm incorporation ([4]; Donor #2, PMA + CD40, 5 μM BMLOV): 47624 cpm
- [3H]cpm incorporation ([4]; Donor #2, PMA + CD40, 10 μM BMLOV): 29024 cpm
- [3H]cpm incorporation ([4]; Donor #2, PMA + CD40, 25 μM BMLOV): 15671 cpm
- [3H]cpm incorporation ([4]; Donor #2, PMA + IL4, 1 μM BMLOV): 53642 cpm
- [3H]cpm incorporation ([4]; Donor #2, PMA + IL4, 5 μM BMLOV): 41892 cpm
- [3H]cpm incorporation ([4]; Donor #2, PMA + IL4, 10 μM BMLOV): 20313 cpm
- [3H]cpm incorporation ([4]; Donor #2, PMA + IL4, 25 μM BMLOV): 2730 cpm
- DNA fragmentation by TUNEL (Ramos B cells [5]): extensively induced in a dose dependent manner
- DNA fragmentation by TUNEL (Jurkat T cells): little labeling was observed

— patent US5877210A, “Phosphotyrosine phosphatase inhibitors or phosphotyrosine kinase activators for controlling cellular proliferation” (priority 1995, dated 1999)
